Data from US20090306147A1, “BIOLOGICAL EFFICACY OF AGROCHEMICAL COMPOSITIONS ON APPLICATION IN THE GROWTH SUBSTRATE SUITABLE FORMULATIONS AND USE THEREOF” (priority 2006, published 2009).

What was measured:
Assay type in all cases: in vivo
[1] = system: green peach aphid (Myzus persicae); assay: Watering test on bell-pepper plant, green peach aphid (Use Example 3)
Description: After sowing, a bell-pepper plant is grown for about 30 days in a 1 litre vessel. The plant is then watered with 60 ml of a solution having the stated concentration of insecticidally active compound and adjuvant and, after the stated period of time, infected with the green peach aphid (Myzus persicae). After the desired period of time, the kill in % is determined. 100% means that all aphids have been killed; 0% means that none of the aphids have been killed. The same test without added adjuvant served as a control.

[2] = system: green peach aphid (Myzus persicae); assay: Watering test on cabbage plant, green peach aphid (Use Example 5); settings: infection 3 d after application, 7 d after infection
Description: (§1) After sowing, a cabbage plant (Brassica oleracea) is grown for about 10 days in a 1 litre vessel. The plant is then watered with 60 ml of a solution having the stated concentration of insecticidally active compound and adjuvant and, after the stated period of time, infected with the green peach aphid (Myzus persicae). After the desired period of time, the kill in % is determined. 100% means that all aphids have been killed; 0% means that none of the aphids have been killed. The same test without added adjuvant served as a control.

[3] = system: diamond-back moth (Plutella xylostella); assay: Watering test on cabbage plant, diamond-back moth caterpillars (Use Example 4); settings: infection 1 d after application, 7 d after infection
Description: as §1, with “about 14” for “about 10”, “the caterpillars of the diamond-back moth (Plutella xylostella).” for “the green peach aphid (Myzus persicae).”, “all caterpillars” for “all aphids”, “the caterpillars” for “the aphids”

How did the Mortality ([1]; 0.0039 mg/l of soil, adjuvant (I-2) 1000 mg/l, infection 3 d after application, 7 d after infection) turn out when `O=[N+]([O-])NC1=NCCN1Cc1ccc(Cl)nc1` [(II-7), imidacloprid] was run?
Its Mortality is “D (from 76 to 100)”.

And the Mortality ([1]; 0.0039 mg/l of soil, adjuvant (I-3) 2000 mg/l watering solution, infection 3 d after application, 4 d after infection)?
Its Mortality is “D (from 76 to 100)”.

And the Mortality ([1]; 0.0039 mg/l of soil, adjuvant (I-3) 2000 mg/l, infection 3 d after application, 7 d after infection)?
The Mortality was “D (from 76 to 100)”.

And the Mortality ([1]; 0.0039 mg/l of soil, adjuvant (I-3) 2000 mg/l, infection 21 d after application, 4 d after infection)?
Its Mortality is “D (from 76 to 100)”.

And the Mortality ([1]; 0.0039 mg/l of soil, adjuvant (I-3) 2000 mg/l, infection 21 d after application, 7 d after infection)?
Its Mortality is “D (from 76 to 100)”.

And the Mortality ([1]; 0.0039 mg/l of soil, adjuvant (I-5) 2000 mg/l watering solution, infection 3 d after application, 4 d after infection)?
Its Mortality is “D (from 76 to 100)”.

And the Mortality ([1]; 0.0039 mg/l of soil, adjuvant (I-5) 2000 mg/l, infection 3 d after application, 7 d after infection)?
The Mortality was “D (from 76 to 100)”.

What about the Mortality ([1]; 0.0039 mg/l of soil, adjuvant (I-5) 2000 mg/l, infection 21 d after application, 4 d after infection) of the same compound?
The Mortality was “D (from 76 to 100)”.

And the Mortality ([1]; 0.0039 mg/l of soil, adjuvant (I-5) 2000 mg/l, infection 21 d after application, 7 d after infection)?
The Mortality was “D (from 76 to 100)”.

What about the Mortality ([1]; 0.0039 mg/l of soil, no adjuvant, infection 3 d after application, 4 d after infection) of the same compound?
The Mortality was “B (from 26 to 50%)”.

And the Mortality ([1]; 0.0039 mg/l of soil, no adjuvant, infection 3 d after application, 7 d after infection)?
The Mortality was “C (from 51 to 75%)”.

And the Mortality ([1]; 0.0039 mg/l of soil, no adjuvant, infection 21 d after application, 4 d after infection)?
Its Mortality is “C (from 51 to 75%)”.

What about the Mortality ([1]; 0.0039 mg/l of soil, no adjuvant, infection 21 d after application, 7 d after infection) of the same compound?
The Mortality was “C (from 51 to 75%)”.

What about the Mortality ([2]; 0.00195 mg/l of soil, adjuvant (I-2) 1000 mg/l) of the same compound?
The Mortality was “B (from 26 to 50%)”.

And the Mortality ([2]; 0.00195 mg/l of soil, no adjuvant)?
The Mortality was “A (from 0 to 25%)”.

And the Mortality ([2]; 0.0039 mg/l of soil, adjuvant (I-2) 1000 mg/l)?
Its Mortality is “C (from 51 to 75%)”.

And the Mortality ([2]; 0.0039 mg/l of soil, no adjuvant)?
The Mortality was “B (from 26 to 50%)”.

`CN(Cc1ccc(Cl)nc1)C1=CC(=O)OC1` [(IV-1)] was tested. Which Mortality ([1]; 0.0156 mg/l of soil, adjuvant (I-3) 2000 mg/l, infection 13 d after application, 5 d after infection) did it give?
The Mortality was “D (from 76 to 100)”.

What about the Mortality ([1]; 0.0156 mg/l of soil, adjuvant (I-3) 2000 mg/l, infection 13 d after application, 7 d after infection) of the same compound?
The Mortality was “D (from 76 to 100)”.

What about the Mortality ([1]; 0.0156 mg/l of soil, adjuvant (I-5) 2000 mg/l, infection 13 d after application, 5 d after infection) of the same compound?
Its Mortality is “D (from 76 to 100)”.

What about the Mortality ([1]; 0.0156 mg/l of soil, adjuvant (I-5) 2000 mg/l, infection 13 d after application, 7 d after infection) of the same compound?
The Mortality was “D (from 76 to 100)”.

What about the Mortality ([1]; 0.0156 mg/l of soil, no adjuvant, infection 13 d after application, 5 d after infection) of the same compound?
Its Mortality is “C (from 51 to 75%)”.

And the Mortality ([1]; 0.0156 mg/l of soil, no adjuvant, infection 13 d after application, 7 d after infection)?
Its Mortality is “C (from 51 to 75%)”.

And the Mortality ([1]; 0.0313 mg/l of soil, adjuvant (I-3) 2000 mg/l, infection 7 d after application, 4 d after infection)?
Its Mortality is “D (from 76 to 100)”.

And the Mortality ([1]; 0.0313 mg/l of soil, adjuvant (I-3) 2000 mg/l, infection 7 d after application, 6 d after infection)?
The Mortality was “D (from 76 to 100)”.

What about the Mortality ([1]; 0.0313 mg/l of soil, adjuvant (I-5) 2000 mg/l, infection 7 d after application, 4 d after infection) of the same compound?
Its Mortality is “D (from 76 to 100)”.

And the Mortality ([1]; 0.0313 mg/l of soil, adjuvant (I-5) 2000 mg/l, infection 7 d after application, 6 d after infection)?
The Mortality was “D (from 76 to 100)”.

What about the Mortality ([1]; 0.0313 mg/l of soil, no adjuvant, infection 7 d after application, 4 d after infection) of the same compound?
Its Mortality is “C (from 51 to 75%)”.

And the Mortality ([1]; 0.0313 mg/l of soil, no adjuvant, infection 7 d after application, 6 d after infection)?
Its Mortality is “C (from 51 to 75%)”.

How did the Mortality ([1]; 2 mg/l of soil, adjuvant (I-5) 1000 mg/l, infection 3 d after application, 7 d after infection) turn out when `CCOC(=O)OC1=C(c2cc(C)ccc2C)C(=O)NC12CCC(OC)CC2` (centres unmarked) [(V-3)] was run?
The Mortality was “C (from 51 to 75%)”.

And the Mortality ([1]; 2 mg/l of soil, adjuvant (I-5) 1000 mg/l, infection 5 d after application, 7 d after infection)?
The Mortality was “C (from 51 to 75%)”.

What about the Mortality ([1]; 2 mg/l of soil, no adjuvant, infection 3 d after application, 7 d after infection) of the same compound?
The Mortality was “B (from 26 to 50%)”.

And the Mortality ([1]; 2 mg/l of soil, no adjuvant, infection 5 d after application, 7 d after infection)?
Its Mortality is “B (from 26 to 50%)”.

With `N#Cc1nn(-c2c(Cl)cc(C(F)(F)F)cc2Cl)c(N)c1[S+]([O-])C(F)(F)F` (centres unmarked) [(VI-1), fipronil] as the compound, how does the Mortality ([3]; 1 mg/l of soil, adjuvant (I-3) 1000 mg/l) read?
Its Mortality is “B (from 26 to 50%)”.

And the Mortality ([3]; 1 mg/l of soil, adjuvant (I-5) 1000 mg/l)?
The Mortality was “C (from 51 to 75%)”.

What about the Mortality ([3]; 1 mg/l of soil, no adjuvant) of the same compound?
The Mortality was “A (from 0 to 25%)”.

What about the Mortality ([3]; 5 mg/l of soil, adjuvant (I-3) 1000 mg/l) of the same compound?
Its Mortality is “D (from 76 to 100)”.

And the Mortality ([3]; 5 mg/l of soil, no adjuvant)?
The Mortality was “C (from 51 to 75%)”.
